# Experimental data taken from patent publication US20260167706A1, “ANTI-ADRENOMEDULLIN (ADM) ANTIBODY OR ANTI-ADM ANTIBODY FRAGMENT OR ANTI-ADM NON-IG SCAFFOLD FOR USE IN THERAPY OR PREVENTION OF SHOCK” (ADRENOMED AG, priority 2022, published 2026).
# Where two headings read alike, the source gives them in different places.
# Legend:
# endotoxemic rats = conditions: pre-treatment; cited from earlier work
# [1] = test system: patients with septic shock and elevated adrenomedullin; assay: AdrenOSS-2 phase II clinical trial, mortality versus placebo; assay type: in vivo, human; conditions: for all-cause mortality compared to the placebo arm: 28 days
# Source text: AdrenOSS-2 is a double-blind, placebo-controlled, randomized, multicenter, proof of concept and dose-finding phase II clinical trial to investigate the safety, tolerability and efficacy of the N-terminal ADM antibody named Adrecizumab in patients with septic shock and elevated adrenomedullin (Geven et al. BMJ Open 2019; 9:e024475). In total, 301 patients with septic shock and bio-ADM concentration >70 pg/mL were randomized (2:1:1) to treatment with a single intravenous infusion over approximately 1 hour with either placebo (n=152), adrecizumab 2 ng/kg (n=72) or adrecizumab 4 ng/kg (n=77). All-cause mortality within 28 (90) days after inclusion was 25.8% (34.8%). Mean age was 68.4 years and 61% were male. For the per protocol analysis, n=294 patients remained eligible, and 14-day all-cause mortality rate was 18.5%.
# To validate the findings from example 10 and for proof of concept, the different lower thresholds for DPP3 at baseline (day 1) were assessed for efficacy of the anti-ADM antibody (Adrecizumab) therapy in the septic shock population with high bio-ADM from the AdrenOSS-2 study cohort and patients with a DPP3 plasma value above the different lower thresholds were excluded from the analyses. Efficacy of the anti-bio-ADM antibody therapy was specifically assessed to what concerns the mortality endpoint in the placebo and treated arms.
# The DPP3 plasma levels in septic shock with high bio-ADM (above […]) patients (n=298) at baseline and in the following 144 h were statistically analysed with the aim of determining a DPP3 threshold at baseline to assess anti-ADM antibody therapy efficacy. Patients above the respective DPP3 plasma thresholds were excluded from the analyses. Different DPP3 plasma concentration thresholds have been applied for 28-day all-cause mortality evaluation using Kaplan-Meier plots comparing anti-ADM antibody therapy vs. placebo. The log-rank test was chosen for showing differences in mortality rates among treatment groups. Hazard ratios (HR) were calculated for each DPP3 plasma concentration threshold to estimate the reduction in mortality risk imposed by anti-ADM antibody therapy relative to placebo.
# The different thresholds for DPP3 levels at baseline (day 1) were further used for subgroup analyses for 28-day all-cause mortality evaluation using Kaplan-Meier plots in the treated and placebo arms comparing anti-ADM antibody therapy (Adrecizumab) vs. placebo. The DPP3 plasma concentration thresholds at baseline used were 50 ng/ml and 30 ng/ml.
# [2] = test system: mice with CLP-induced sepsis; conditions: pre-treatment, cited from earlier work
# [3] = test system: subjects of phase I study; conditions: cited from earlier work
# [4] = test system: patients with septic shock and elevated adrenomedullin; assay: AdrenOSS-2 phase II clinical trial, mortality versus placebo; assay type: in vivo, human
substance,measurement,setting,value
"Adrecizumab: humanized N-terminal anti-ADM antibody; heavy chain SEQ ID NO: 32, light chain SEQ ID NO: 33",renal vascular leakage,endotoxemic rats,attenuated
same,all-cause mortality compared to the placebo arm,[1]; DPP3 below 30 ng/ml (n=195),significantly reduced
same,all-cause mortality compared to the placebo arm,[1]; DPP3 below 50 ng/ml,lower than the placebo arm
same,all-cause mortality compared to the placebo arm,[1]; DPP3 below 50 ng/ml at baseline and continuously low during the next 144h,significantly lower
same,"HR, 28-day all-cause mortality relative to placebo",[1]; DPP3 threshold at baseline 22 ng/ml,0.258
same,"HR, 28-day all-cause mortality relative to placebo",[1]; DPP3 threshold at baseline 30 ng/ml,0.309
same,"HR, 28-day all-cause mortality relative to placebo",[1]; DPP3 threshold at baseline 40 ng/ml,0.568
same,"HR, 28-day all-cause mortality relative to placebo",[1]; DPP3 threshold at baseline 50 ng/ml,0.606
same,renal vascular leakage,[2]; mice with CLP-induced sepsis,attenuated
same,7-day survival,[2]; repeated dose administration (control 0%),40%
same,7-day survival,[2]; single dose administration (control 10%),50%
same,serious adverse events,[3],no serious adverse events were observed
same,HR for 14-day mortality,[4]; elevated DPP3 above 50 ng/mL,1.69
same,HR for 14-day mortality,[4]; pre-dose DPP3 <40,0.385
same,HR for 14-day mortality,[4]; pre-dose DPP3 <50 (ng/mL),0.426
same,HR for 14-day mortality,[4]; pre-dose DPP3 <60,0.449
same,HR for 14-day mortality,[4]; pre-dose DPP3 <70,0.546
same,HR for 14-day mortality,[4]; pre-dose DPP3 <90,0.606
